# Test results reported in patent publication US12576155B2, “Senolytic and antiinflammatory prodrugs and methods of use thereof” (priority 2019, dated 2026).
# Assays:
# [1] = test system: human senescent fibroblasts induced by different stimuli; assay: Cell viability, senescent and non-senescent human embryonic fibroblasts (HEFs); type: cell-based
# Experimental: Human embryonic skin fibroblasts (HEFs) were obtained as previously described. Briefly, human embryonic skin tissues, obtained from aborted tissue with informed patient consent, were minced with forceps and incubated in 1 mg/ml collagenase IV for 1-2 hours at 37° C. After enzyme treatment, cells were collected by centrifugation and resuspended in HEF medium (Dulbecco's modified Eagle's medium (DMEM, Gibco) containing 10% fetal bovine serum (FBS, Ausbian), 1% GlutaMAX (Gibco), 1% Non-Essential Amino Acids (NEAA, Gibco) and 1% penicillin/streptomycin (Gibco). Cells were plated on 10 cm tissue culture dishes and grown in 10% FBS DMEM.
# (§1) For replication-induced senescence, cells were passaged until they lost the ability to proliferate and became senescent. NBFs were used as senescent cells after approximately 8-9 passages or 12 population doublings. HEFs were used after approximately 35 passages or 50 population doublings. HUVECs were senescent after approximately 18 passages or 24 population doublings.
# For ionizing radiation-induced senescence, MEFs and HEFs were exposed to 10 Gy of ionizing irradiation in an RS 2000 X-ray Biological Irradiator (Rad Source Technologies, Inc.) at a dose rate of 1.205 Gy/min. The day after irradiation, MEFs or HEFs were passaged at a 1:3 dilution and cultured for another three days. Then these cells were plated to carry out further experiments.
# For etoposide-induced senescence, MEFs were treated with 2 μM etoposide for 20 hours, and HEFs were treated with 10 μM etoposide for 12-18 hours. Three days after treatment, cells were sub-cultured at a 1:3 ratio for 72 hours in a fresh medium before further analysis.
# To test the viability of senescent and non-senescent cells treated with SSK1, cells were stained with a mixture of Hoechst 33342 and propidium iodide (PI) (CA1120, Solarbio) to distinguish living and dead cells. […] The plate was incubated at 4° C. for 30 min and observed on a fluorescence microscope or automatic cell imaging system. Viable cells were quantified using a MD Image Xpress Micro XL (Molecular Devices).
# [2] = test system: primary mouse fibroblasts and their replication-induced senescent counterparts; assay: Cell viability testing, senescent vs non-senescent primary mouse fibroblasts; type: cell-based; conditions: increasing doses; senescent vs non-senescent cells
# Experimental: Mouse embryonic fibroblasts (MEFs) were isolated from E13.5 embryos as described previously (Zhao et al., Cell Stem Cell 23, 31-45 e37([…])). Newborn mouse skin fibroblasts (NBFs) were isolated from the skin of day 1-3 newborn mice. Adult mouse lung fibroblasts were isolated from 2-month-old and 23-month-old mice. Briefly, mouse embryonic tissues, skin and lung were obtained from described donor mice. Then, these tissues were minced with forceps and incubated in 2 mg/ml collagenase IV (Gibco) for 2-4 hours at 37° C. After enzyme treatment, cells were collected by centrifugation and resuspended in high-glucose DMEM (Gibco) supplemented with 10% fetal bovine serum (FBS) and 1% penicillin-streptomycin (Gibco). The three types of mouse primary cells were all cultured in a humidified incubator at 37° C. and 5% CO2.
# To avoid replication-induced senescent cells, low-passage proliferative NBFs (<3 passages), MEFs (<3 passages), mouse lung fibroblasts (<3 passages), HEFs (<10 passages), and HUVECs (<6 passages) were used as normal controls. To induce cell quiescence, MEFs were cultured in DMEM without FBS for 2 days.
# as §1
# To test the viability of senescent and non-senescent cells treated with SSK1, cells were stained with a mixture of Hoechst 33342 and propidium iodide (PI) (CA1120, Solarbio) to distinguish living and dead cells. After treatment with the small molecules, the cell culture medium was removed, and the cells were washed once with PBS. […] The plate was incubated at 4° C. for 30 min and observed on a fluorescence microscope or automatic cell imaging system. Viable cells were quantified using a MD Image Xpress Micro XL (Molecular Devices).
structure (smiles),measurement,setting,value
CC(=O)OCC1O[C@@H](Oc2ccc(COC(=O)Nc3ccn([C@@H]4O[C@H](CO)C(O)C4(F)F)c(=O)n3)cc2[N+](=O)[O-])C(OC(C)=O)C(OC(C)=O)[C@H]1OC(C)=O (stereo partly drawn) [SSK1],Clearance of senescent cells,[1]; senescent HEFs induced by different stresses vs non-senescent counterparts,cleared by SSK1
same,Percentage of cell viability in senescent cell populations,"[1]; vehicle or treated senescent HEFs, FIG. 2F",dose dependent decrease of senescent cells
same,Selective killing of senescent cells (viable cells),[2],selectively and potently eliminated SA-β-gal-positive senescent cells over non-senescent cells with a wide therapeutic window
